Two compounds from the NIST ThermoML archive (doi:10.1016/j.fluid.2015.09.036) can be followed below.

± gives the expanded uncertainty stated by the source.

The data set can be described thus: wn = mass fraction of the nth substance listed. As to conditions: 101.3 kPa, Liquid, Vibrating tube method.

By mass density is commonly meant mass per unit of volume. Consider `O=C(O)CCCC(=O)O` [1,5-pentanedioic acid] + CCO, for which the mass density by setting is: (283.15 K, w1 = 0.1926) 967.2 ± 0.8 kg/m3; (303.15 K, w1 = 0.4065) 999.4 ± 1.6 kg/m3; (313.15 K, w1 = 0.5552) 1005.4 ± 1.8 kg/m3.
As for `O=C(O)CCCCC(=O)O` [1,6-hexanedioic acid] + CCO, the mass density reads like this: (283.15 K, w1 = 0.06948) 841 ± 0.3 kg/m3; (303.15 K, w1 = 0.1384) 855.2 ± 0.5 kg/m3; (313.15 K, w1 = 0.1853) 876.9 ± 0.7 kg/m3.
